# Values quoted from earlier work as cited in US12268209B2, “Liquid sulfonylurea-containing herbicidal compositions” (Mitsui AgriScience International S.A./N.V., priority 2014, dated 2025).
# How the values were obtained:
# [1] = after 5 days, depending on the selected solvent; 52° C.
# [2] = after one week of storage at 40° C.; compositions of WO 2007/027863 A2
Compound,metsulfuron methyl lost [1],tribenuron-methyl lost [2]
"COC(=O)c1ccccc1S(=O)(=O)NC(=O)Nc1nc(C)nc(OC)n1 [metsulfuron-methyl, methyl 2-[[[[(4-methoxy-6-methyl-1,3,5-triazin-2-yl)amino]carbonyl]amino]sulfonyl]benzoate]",25-30%,
"COC(=O)c1ccccc1S(=O)(=O)NC(=O)N(C)c1nc(C)nc(OC)n1 [tribenuron-methyl, methyl 2-[[[[N-(4-methoxy-6-methyl-1,3,5-triazin-2-yl)-N-methylamino]carbonyl]amino]-sulfonyl]benzoate]",,up to 66.5%
